Structures can show the parent of a compound that is named as a salt.

The series in a line: Blood concentration after oral administration to rat or dog. The class given is in vivo. The following applies: gavage to male SD rat or male beagle, suspended in 0.5% methylcellulose, 30 mg/kg or 100 mg/kg, respectively, HPLC or LC-MS/MS; for blood concentration of compound (A) after administration of the Example compound: 0.25-24 hr. As for the experimental part: Experimental Example 2: Blood Concentration after Oral Administration to Rat or Dog
Compound (A) or Example compound suspended in 0.5% methylcellulose solution was administered by gavage to male SD rat or male beagle at a dose of 30 mg/kg or 100 mg/kg, respectively. At 0.25, 0.5, 1, 2, 4, 6 and 24 hr after administration, blood samples were collected from the cervical vein with a 1 mL syringe and was added in a 2.0 mL tube to which heparin was added. The blood was treated with acetonitrile, and the blood concentration of compound (A) was determined by using HPLC or LC-MS/MS.

Regarding `CC(OC(=O)CC(=O)c1cc2c(o1)C(=O)c1ccccc1C2=O)OC(=O)OC[C@@H](O)CO` (stereo partly drawn) [Example 65], the “blood concentration of compound (A) after administration of the Example compound” value (“blood concentration … of the Example compound” for short) is “emerged in the blood over time” and the “maximum blood concentration of compound (A), compared with administration of compound (A) itself” value is listed as “higher”.

As for `O=C(/C=C(\O)c1cc2c(o1)C(=O)c1ccccc1C2=O)OCCOCC(O)CO` (stereo not drawn) [Example 129], the “blood concentration … of the Example compound” value was “emerged in the blood over time” and the “maximum blood concentration of compound (A), compared with administration of compound (A) itself” value is “higher”.

Consider `O=C(/C=C(\O)c1cc2c(o1)C(=O)c1ccccc1C2=O)OCCCO` [Example 133], for which the “blood concentration … of the Example compound” value is “emerged in the blood over time” and the “maximum blood concentration of compound (A), compared with administration of compound (A) itself” value is recorded as “higher”.

On to `CC(C)N1CC(OC(=O)CC(=O)c2cc3c(o2)C(=O)c2ccccc2C3=O)C1.Cl` [Example 114], for which the “blood concentration … of the Example compound” value was “emerged in the blood over time” and the “maximum blood concentration of compound (A), compared with administration of compound (A) itself” value was “higher”.

As for `Cl.O=C(CC(=O)c1cc2c(o1)C(=O)c1ccccc1C2=O)OCC#CCN1CCCC1` [Example 116], the “blood concentration … of the Example compound” value is on record as “emerged in the blood over time” and the “maximum blood concentration of compound (A), compared with administration of compound (A) itself” value is reported as “higher”.

`COCC(C)(C)C(=O)OC(C)OC(=O)CC(=O)c1cc2c(o1)C(=O)c1ccccc1C2=O` (stereo not drawn) [Example 54]: the “blood concentration … of the Example compound” value was “emerged in the blood over time” and the “maximum blood concentration of compound (A), compared with administration of compound (A) itself” value is recorded as “higher”.

In the case of `O=C(/C=C(\O)c1cc2c(o1)C(=O)c1ccccc1C2=O)OCC(CO)CO` [Example 126], the “blood concentration … of the Example compound” value is recorded as “emerged in the blood over time” and the “maximum blood concentration of compound (A), compared with administration of compound (A) itself” value was “higher”.

As to `COCCOC(=O)CC(=O)c1cc2c(o1)C(=O)c1ccccc1C2=O` [Example 79], the “blood concentration … of the Example compound” value is on record as “emerged in the blood over time” and the “maximum blood concentration of compound (A), compared with administration of compound (A) itself” value was “higher”.

`O=C(/C=C(\O)c1cc2c(o1)C(=O)c1ccccc1C2=O)OCCO` [Example 13, 2-Hydroxyethyl 3-(4,9-dioxo-4,9-dihydro-naphtho[2,3-b]furan-2-yl)-3-hydroxy-acrylate Ethanolamine Salt]: the “blood concentration … of the Example compound” value is listed as “emerged in the blood over time” and the “maximum blood concentration of compound (A), compared with administration of compound (A) itself” value is “higher”.

Turning to `CC(OC(=O)CC(=O)c1cc2c(o1)C(=O)c1ccccc1C2=O)OC(=O)OCC1COC(C)(C)O1` (stereo not drawn) [Example 66], the “blood concentration … of the Example compound” value was “emerged in the blood over time” and the “maximum blood concentration of compound (A), compared with administration of compound (A) itself” value was “higher”.

In the case of `O=C(CC(=O)c1cc2c(o1)C(=O)c1ccccc1C2=O)OCOC(=O)C(O)CO` (stereo not drawn) [Example 60], the “blood concentration … of the Example compound” value is reported as “emerged in the blood over time” and the “maximum blood concentration of compound (A), compared with administration of compound (A) itself” value is “higher”.

Turning to `O=C(/C=C(\O)c1cc2c(o1)C(=O)c1ccccc1C2=O)OCC(O)CO` (stereo not drawn) [Example 95], the “blood concentration … of the Example compound” value was “emerged in the blood over time” and the “maximum blood concentration of compound (A), compared with administration of compound (A) itself” value is listed as “higher”.

On to `CCN(CC)CC#CCOC(=O)CC(=O)c1cc2c(o1)C(=O)c1ccccc1C2=O.Cl` [Example 93], for which the “blood concentration … of the Example compound” value is reported as “emerged in the blood over time” and the “maximum blood concentration of compound (A), compared with administration of compound (A) itself” value is listed as “higher”.

For the compound `N[C@@H](CO)C(=O)OCCOC(=O)CC(=O)c1cc2c(o1)C(=O)c1ccccc1C2=O` [Example 75], the “blood concentration … of the Example compound” value is “emerged in the blood over time” and the “maximum blood concentration of compound (A), compared with administration of compound (A) itself” value was “higher”.

Regarding `CC(C)[C@H](N)C(=O)OCCCOC(=O)CC(=O)c1cc2c(o1)C(=O)c1ccccc1C2=O.Cl` [Example 120], the “blood concentration … of the Example compound” value is listed as “emerged in the blood over time” and the “maximum blood concentration of compound (A), compared with administration of compound (A) itself” value is “higher”.

For `O=C(/C=C(\O)c1cc2c(o1)C(=O)c1ccccc1C2=O)OCCOCCO` [Example 125], the “blood concentration … of the Example compound” value is “emerged in the blood over time” and the “maximum blood concentration of compound (A), compared with administration of compound (A) itself” value is “higher”.

With `C[C@H](N)C(=O)OCCOC(=O)CC(=O)c1cc2c(o1)C(=O)c1ccccc1C2=O.Cl` [Example 74], the “blood concentration … of the Example compound” value is on record as “emerged in the blood over time” and the “maximum blood concentration of compound (A), compared with administration of compound (A) itself” value is “higher”.

`O=C(/C=C(\[O-])c1cc2c(o1)C(=O)c1ccccc1C2=O)OCC(O)CO.[Na+]` (stereo not drawn) [Example 88]: the “blood concentration … of the Example compound” value was “emerged in the blood over time” and the “maximum blood concentration of compound (A), compared with administration of compound (A) itself” value is “higher”.

The values above are taken from patent publication US11267797B2, “Anticancer agent” (Kyoto Pharmaceutical Industries, Ltd., priority 2014, dated 2022).
